# Assay results published in patent US20120064056A1, “DICHLORACETATE IN COMBINATION WITH CLINICALLY HIGH LEVELS OF CARDIOPROTECTIVE OR HEMODYNAMIC DRUGS” (THE GOVERNORS OF THE UNIVERSITY OF ALBERTA TEC Edmonton, priority 2002, published 2012).
# Key:
# isolated rat hearts = assay: Isolated working rat heart, aerobic perfusion: cardiac function and efficiency; design: Cardiac Work (CO · PSP): unit not given beside the values
# Procedure: Rat hearts were cannulated for isolated working heart perfusions as described in “An imbalance between glycolysis and glucose oxidation is a possible explanation for the detrimental effects of high levels of fatty acids during aerobic reperfusion of ischemic hearts.”, (J Pharmacol Exp Ther. 264:135 (1993); herein incorporated by reference. In brief, male Sprague-Dawley rats (0.3-0.35 kg) were anesthetized with pentobarbital sodium (60 mg/kg IP) and hearts were quickly excised, the aorta was cannulated and a retrograde perfusion at 37° C. was initiated at a hydrostatic pressure of 60 mm Hg. Hearts were trimmed of excess tissue, and the pulmonary artery and the opening to the left atrium were then cannulated. After 15 min of Langendorff perfusion, hearts were switched to the working mode by clamping the aortic inflow line from the Langendorff reservoir and opening the left atrial inflow line. The perfusate was delivered from an oxygenator into the left atrium at a constant preload pressure of 11 mm Hg. Perfusate was ejected from spontaneously beating hearts into a compliance chamber (containing 1 ml of air) and into the aortic outflow line. The afterload was set at a hydrostatic pressure of 80 mm Hg. All working hearts were perfused with Krebs'-Henseleit solution containing calcium 2.5 mmol/L, glucose 5.5 mmol/L, 3% bovine serum albumin (Fraction V, Boehringer Mannheim), and with 1.2 mmol/L palmitate. Palmitate was bound to the albumin as described previously (Saddik M., et al. J Biol. Chem. 267:3825-3831 (1992)). The perfusate was recirculated, and pH was adjusted to 7.4 by bubbling with a mixture containing 95% O2 and 5% CO2. For the aerobic model hearts, all tested compounds were introduced into the heart 5 minutes into the working mode following Langendorff Perfusion.
# Spontaneously beating hearts were used in all perfusions. Heart rate and aortic pressure were measured with a Biopac Systems Inc. blood pressure transducer connected to the aortic outflow line. Cardiac output and aortic flow were measured with Transonic T206 ultrasonic flow probes in the preload and afterload lines, respectively. Coronary flow was calculated as the difference between cardiac output and aortic flow. The O2 contents of the perfusate entering and leaving the heart were measured using YSI™ micro oxygen electrodes placed in the preload and pulmonary arterial lines, respectively. Myocardial O2 consumption (MVO2) was calculated according to the Fick principle, using coronary flow rates and the arteriovenous difference in perfusate O2 concentration. Cardiac work was calculated as the product of systolic pressure and cardiac output. Cardiac efficiency was defined as a ratio of cardiac work to MVO2.
# [1] = system: isolated rat hearts subjected to global ischemia; assay: Isolated working rat heart, global ischemia and reperfusion: glycolysis and glucose oxidation; settings: digoxin 3 nM, metoprolol 1 μM
# Procedure: Hearts were trimmed of excess tissue, and the pulmonary artery and the opening to the left atrium were then cannulated. After 15 min of Langendorff perfusion, hearts were switched to the working mode by clamping the aortic inflow line from the Langendorff reservoir and opening the left atrial inflow line. The perfusate was delivered from an oxygenator into the left atrium at a constant preload pressure of 11 mm Hg. […] The afterload was set at a hydrostatic pressure of 80 mm Hg. […] Palmitate was bound to the albumin as described previously ([…]., et al. J Biol. Chem. 267:3825-3831 (1992)). […] For the aerobic model hearts, all tested compounds were introduced into the heart 5 minutes into the working mode following Langendorff Perfusion. […] All tested compounds were introduced into the perfusate five minutes prior to reperfusion. […] Am J Physiol. 270:[…]. Am J Cardiol. 80:3A-10A (1997)). […] In the global ischemia model, the total myocardial ^3H2O and ^14CO2 production were determined at 20 minute intervals for the 60 minute reperfusion period. […] L., et al. Biochemistr. 1923:6503-6062 (1984)).
# [2] = aerobically perfused, DCA 2 mM, diltiazem 0.8 μM, digoxin 3 nM, metoprolol 1 μM, dobutamine 1 μM
smiles,measurement,setting,value
"COCCc1ccc(OCC(O)CNC(C)C)cc1 (stereo not shown) [Metoprolol, metoprolol]",Aortic Outflow,isolated rat hearts; [2],35 ± 5 mL/min
same,Cardiac Efficiency (CW · O2^−1),isolated rat hearts; [2],1.85 ± 0.15
same,Cardiac Output,isolated rat hearts; [2],55 ± 8 mL/min
same,Cardiac Work (CO · PSP),isolated rat hearts; [2],71 ± 10
same,Coronary Flow,isolated rat hearts; [2],20 ± 3 mL/min
same,HR × PSP,isolated rat hearts; [2],32 ± 4 beats · min^−1 · mmHg · 10^−2
same,Heart Rate,isolated rat hearts; [2],250 ± 26 beats · min^−1
same,O2 Consumption,isolated rat hearts; [2],40 ± 9 μmolO2 · g dry wt^−1 · min^−1
same,Peak Systolic Pressure,isolated rat hearts; [2],130 ± 2 mmHg
same,"effect on functional parameters shown in Table 2 incl. O2 consumption and cardiac efficiency, in words","isolated rat hearts; normal hearts, aerobic, compared to control",no significant effect
same,"effect on functional parameters shown in Table 1 (heart rate, peak systolic pressure, HR×PSP), in words","isolated rat hearts; normal hearts, aerobic, compared to control (DCA and dobutamine: compared to dobutamine alone)",no significant effect
same,"glycolytic rates as compared to control, in words","[1]; FIG. 10, FIG. 16, DCA 2 mM","neither DCA, metoprolol or metoprolol with DCA altered glycolytic rates"
same,"glucose oxidation rates, in words","[1]; reperfusion period, FIG. 9, FIG. 15, DCA 2 mM",no effect
